# Bridge positions count the residues as written; N and C are the ends. Ends that are not written are not given here.
# Assays:
# [1] = test system: wild‐type (Gprc6a +/+) and global knock out (Gprc6a −/−) mice; assay: Blood glucose after intraperitoneal injection in mice; type: in vivo, mouse; details: 2 nmol/g intraperitoneal, 24 h, n ≥ 5
# Protocol: (§1) 8‐week‐old wild‐type (Gprc6a ^ +/+ ) and global knock out (Gprc6a ^ −/− ) mice were injected intraperitoneally with Ocn 20–29 (2 nmol/g body weight), or vehicle (saline; 10 μL/g body weight). Serum was collected at 24 h after intraperitoneal injection. Blood glucose levels were measured by using blood glucose strips and the Accu‐Check glucometer as described.[7], [31] A mouse IL‐6 ELISA Kit was purchased from Invitrogen (Waltham, MA, USA). Rat/Mouse FGF‐21ELISA Kit was obtained from Millipore Sigma (Burlington, MA, USA).
# (§2) The Gprc6a ^ −/− mouse model was created by replacing exon 2 of the GPRC6A gene with the hygromycin resistance gene, as described previously.[32] Mice were maintained and used in accordance with recommendations as described (National Research Council 1985; Guide for the Care and Use of Laboratory Animals Department of Health and Human Services Publication NIH 86–23, Institute on Laboratory Animal Resources, Rockville, MD) and following guidelines established by the University of Tennessee Health Science Center Institutional Animal Care and Use Committee. The animal study protocol was approved by the institutional review boards at University of Tennessee Health Science Center Institutional Animal Care and Use Committee.
# [2] = test system: wild‐type (Gprc6a +/+) and global knock out (Gprc6a −/−) mice; assay: Serum IL-6 (ELISA) after intraperitoneal injection in mice; type: in vivo, mouse; details: 2 nmol/g IP, 24 h, n ≥ 5
# Protocol: as §1, §2
sequence,measurement,setting,value
"REVCELNPDC (disulfide 4-10 (inferred)) [Ocn 20–29, synthesized human Ocn decapeptide fragment located in the middle of the protein]",Blood glucose response,[1]; Gprc6a −/− mice,lost
same,Reduction of blood glucose levels,"[1]; wild-type Gprc6a +/+ mice, 8 weeks old, single injection, vehicle saline had no effect",~ 10%
same,Serum IL-6 response,[2]; Gprc6a −/− mice,lost
same,Serum IL-6 level versus vehicle,[2]; wild-type Gprc6a +/+ mice,significant increase
